Data taken from patent US20250179121A1, “CYCLOSPORINE COMPOSITIONS AND METHODS OF USE” (Bacainn Biotherapeutics, Ltd., priority 2018, published 2025).
“And” between values parts separate entries of the source, which are not always exact repeats. Equal values may be shown once.

What was measured:
[1] = test system: neutrophil migration; experiment: PMN transmigration assay (T84 monolayer infected with Salmonella typhimurium, MPO readout); format: cell-based, human
Description: PMN transmigration assay. T84 colorectal cancer cells were grown to confluence on the bottom side of 12 well polycarbonate membrane inserts of a 24 well Transwell® plate. The confluent growth of these epithelial cells results in physiologically-relevant apical (luminal) and basolateral surfaces in the transwells. […] The monolayer was then infected on the apical surface with Salmonella typhimurium for 2 hours to induce hepoxilin A3 (HXA3) efflux through the MRP2 membrane protein and into the apical chamber. […] Freshly isolated and prepared human neutrophils were then added to the basolateral side and allowed to transmigrate through the monolayer for 2 hours. The number of neutrophils migrated to the apical chamber (due to the HXA3 gradient) was then assayed by determination of myeloperoxidase activity (a neutrophil biomarker). Inhibition of transmigration is indicated by lower MPO activity in the apical chamber.

[2] = Rat PK, plasma concentrations after oral dosing; format: in vivo, Sprague-Dawley rats; details: for plasma concentration of BT070 (breakdown product of BT051): individual animals A-E
Description: [Worded in the source for another target; this target is reported under the same test.] Blood samples were collected at the indicated time points and processed to plasma. Plasma concentrations of BT090 were assayed by LC-MS/MS. Feces were collected over t=0 to 4 h, 4-8 h, and 8-24 h, homogenized in buffer and assayed for BT090 concentrations by LC-MS/MS. Total feces weight collected for each time interval was recorded. BT090 was formulated in 1% NMP, 0.3% Tween-80 in 0.5% methylcellulose.

[3] = Amount excreted in feces after oral dosing in rats; format: in vivo, Sprague-Dawley rats; details: rat; for Conc. in feces: BT070 10 mg/kg oral, individual animals A-C, corrected for the 1:9 dilution factor
[4] = BT070 10 mg/kg oral, rat, individual animals A-C, 10 mg/kg

In the case of CC[C@@H]1NC(=O)[C@H]([C@H](O)[C@H](C)CCCCCC(=O)O)N(C)C(=O)[C@H](C(C)C)N(C)C(=O)[C@H](CC(C)C)N(C)C(=O)[C@H](CC(C)C)N(C)C(=O)[C@@H](C)NC(=O)[C@H](C)NC(=O)[C@H](CC(C)C)N(C)C(=O)[C@H](C(C)C)NC(=O)[C@H](CC(C)C)N(C)C(=O)CN(C)C1=O [BT070], the “inhibition of neutrophil migration, dose-response” value ([1]; FIG. 1) is reported as “dose-responsive inhibition”, the “inhibition of neutrophil migration” value ([1]; dose of 100 nM) is reported as “exhibit inhibition of neutrophil migration” and the IC50 ([1]; read-out: compound concentration at which 50% inhibition of neutrophil migration was observed, FIG. 1 dose-response) is reported as 31.2 nM. For the same compound, the “plasma concentration, Mean” value ([2]; BT070 10 mg/kg oral, rat, 0.5 h, mean) was 3588.6 ng/mL, the “plasma concentration, Mean” value ([2]; BT070 10 mg/kg oral, rat, 1 h, mean) was 2301.5 ng/mL and the “plasma concentration, Mean” value ([2]; BT070 10 mg/kg oral, rat, 2 h, mean) was 1522.8 ng/mL. For the same compound, the “plasma concentration, Mean” value ([2]; BT070 10 mg/kg oral, rat, 4 h, mean) was 829.6 ng/mL, the “plasma concentration, Mean” value ([2]; BT070 10 mg/kg oral, rat, 6 h, mean) was 488.3 ng/mL and the “plasma concentration, Mean” value ([2]; BT070 10 mg/kg oral, rat, 8 h, mean) was 293.9 ng/mL. The “plasma concentration, Mean” value ([2]; BT070 10 mg/kg oral, rat, 24 h, mean) was 101.2 ng/mL, the AUCinf [2, 4] was 17616.8 ng/mL * h and 19158.4* ng/mL * h and 7432.0 ng/mL * h and the AUClast [2, 4] was 17560.9 ng·h/mL and 11798.3 ng·h/mL and 7249.5 ng·h/mL. The “AUCinf, Mean” value ([2]; BT070 10 mg/kg oral, rat, mean) was 14735.7 ng·h/mL, the “AUClast, Mean” value ([2]; BT070 10 mg/kg oral, rat, mean) was 12202.9 ng·h/mL and the “plasma concentration of BT070 (breakdown product of BT051)” value ([2]; after BT051 10 mg/kg oral, rat, 0.5 h) was 3.3 ng/mL and NQ (Not quantifiable. No peak or below limit of quantification (LOQ = 2.5 ng/mL)) (4×). The “plasma concentration of BT070 (breakdown product of BT051), Mean” value ([2]; after BT051 10 mg/kg oral, rat, 0.5 h, mean) was 3.3 ng/mL, the “plasma concentration of BT070 (breakdown product of BT051)” value ([2]; after BT051 10 mg/kg oral, rat, 1 h) was “NQ (Not quantifiable. No peak or below limit of quantification (LOQ = 2.5 ng/mL))” and the “plasma concentration of BT070 (breakdown product of BT051)” value ([2]; after BT051 10 mg/kg oral, rat, 2 h) was “NQ (Not quantifiable. No peak or below limit of quantification (LOQ = 2.5 ng/mL))”. For the same compound, the “plasma concentration of BT070 (breakdown product of BT051)” value ([2]; after BT051 10 mg/kg oral, rat, 4 h) was “NQ (Not quantifiable. No peak or below limit of quantification (LOQ = 2.5 ng/mL))”, the “plasma concentration of BT070 (breakdown product of BT051)” value ([2]; after BT051 10 mg/kg oral, rat, 6 h) was “NQ (Not quantifiable. No peak or below limit of quantification (LOQ = 2.5 ng/mL))” and the “plasma concentration of BT070 (breakdown product of BT051)” value ([2]; after BT051 10 mg/kg oral, rat, 8 h) was “NQ (Not quantifiable. No peak or below limit of quantification (LOQ = 2.5 ng/mL))”. For the same compound, the “plasma concentration of BT070 (breakdown product of BT051)” value ([2]; after BT051 10 mg/kg oral, rat, 24 h) was “NQ (Not quantifiable. No peak or below limit of quantification (LOQ = 2.5 ng/mL))”, the “Cmax of BT070 (breakdown product of BT051)” value ([2]; after BT051 10 mg/kg oral, rat, individual animals) was 3.3 ng/mL and the “Cmax of BT070 (breakdown product of BT051), Mean” value ([2]; after BT051 10 mg/kg oral, rat, mean) was 3.3 ng/mL. The “detection in the plasma from 15 minutes to 24 hours” value ([2]; compound dosed orally in rats at 10 mg/kg) was “present in the plasma in all subject rats”, the “oral bioavailability of the breakdown product of BT051” value ([2]; following oral administration of BT051 in rats at 10 mg/kg) was “not orally bioavailable” and the Conc. in feces ([3]; 0-4 h) was “NQ (Not quantifiable. No peak or below limit of quantification (LOQ = 1000 ng/mL))”. For the same compound, the Conc. in feces ([3]; 4-8 h) was “NQ (Not quantifiable. No peak or below limit of quantification (LOQ = 1000 ng/mL))”, the “Total amount of BT070 (breakdown product of BT051) excreted in feces” value ([3]; after BT051 10 mg/kg oral, 0-48 h, individual animals A-D) was 36.9 µg and 33.4 µg and 41.4 µg and 38.5 µg and the “Amount of BT070 (breakdown product of BT051) excreted in feces” value ([3]; after BT051 10 mg/kg oral, 8-24 h, individual animals A-D) was 31.2 µg and 14.3 µg and 10.6 µg and 34.8 µg. The “Amount of BT070 (breakdown product of BT051) excreted in feces” value ([3]; after BT051 10 mg/kg oral, 24-48 h, individual animals A-D) was 5.7 µg and 19.1 µg and 30.8 µg and 3.7 µg.
